{"source": "patent US20050170041A1", "about": "“Chewing gum compositions comprising monatin and methods for making same” (Cargill, Inc., priority 2003, published 2005)", "key": {"[1]": {"assay": "Sweetness comparison procedure against sucrose reference solutions (sensory panel)", "type": "in vivo", "conditions": "experienced sensory evaluators", "description": "The S,S stereoisomer of monatin is approximately 50-200 times sweeter than sucrose by weight. The R,R stereoisomer of monatin is approximately 2000-2400 times sweeter than sucrose by weight. The sweetness of the monatin is calculated using experienced sensory evaluators in a sweetness comparison procedure, where a test sweetener solution is matched for sweetness intensity against one of a series of reference solutions.\nSpecifically, one may assess sweetness of a sweetener relative to sucrose by using a panel of trained sensory evaluators experienced in the sweetness estimation procedure. All samples (in same buffers) are served in duplicate at a temperature of 22° C.±1° C. Sample solutions may be prepared, for example, using a buffer comprising 0.16% (v/w) citric acid and 0.02% (v/w) sodium citrate at ˜pH 3.0. Test solutions, coded with 3 digit random number codes, are presented individually to panelists, in random order. Sucrose reference standards, ranging from 2.0-10.0% (w/v) sucrose, increasing in steps of 0.5% (w/v) sucrose are also provided. Panelists are asked to estimate sweetness by comparing the sweetness of the test solution to the sucrose standards. […]\nSucrose equivalent value (SEV) (e.g., % sucrose), determined by the panel of trained sensory evaluators, is plotted as a function of monatin concentration to obtain a dose response curve. […]"}, "[2]": {"assay": "Sensory evaluation of sweeteners in iced tea", "type": "in vivo", "conditions": "200 ml serving, aspartame 450 ppm, monatin 40 ppm, panel n=6; for Comments: sweetness and flavor profile: sucralose 170 ppm", "description": "Monatin formulations, including R,R monatin or R,R monatin/erythritol combinations, were assessed relative to other known sweeteners (aspartame and sucralose) in iced tea. The key sensory parameters assessed included sweetness quality, aftertaste, bitter taste and its aftertaste. Qualitative evaluation has been carried out.\nAn ice tea formulation was developed to evaluate sweetener performance (Table 7).\nSweeteners were added to tea at the following concentrations:\nThe evaluation of ice tea drinks was carried out by a panel (n=6) of experienced sensory evaluators."}, "[3]": {"assay": "Sensory stability of monatin and aspartame at pH 2.5, 3.0, 4.0 at 40° C.", "type": "physicochemical", "conditions": "for Rate constant (k) of sweetness loss: 40° C., pseudo-first order assumed; for Sweetness Retained: after 100 days storage at 40° C.; for SEV Aspartame / Retention of Aspartame Sweetness: stored at 40° C., aspartame 400 ppm", "description": "The sensory stability of monatin solutions prepared at pH 2.5, 3.0 and 4.0 and stored at 40° C. was monitored for 100 days. Loss of sweetness from these solutions was compared with the losses of sweetness from aspartame solutions prepared and stored under identical conditions.\nThe sensory stability of monatin (8% SEV, ˜55 ppm, synthetic blend containing approximately 96% of the 2R,4R/2S, 4S enantiometric pair and 4% of the 2R,4S/2S,4R enantiometric pair) in phosphate/citrate buffers having a pH of 2.5, 3.0, and 4.0 was examined after storage at 40° C. The stability of monatin was compared to that of aspartame (400 ppm) in the same buffers. Three sucrose reference solutions were prepared in the same phosphate/citrate buffers as the monatin and aspartame solutions. All prepared solutions were stored in the dark.\nThe sweetness of each sweetener relative to sucrose was assessed in duplicate by a panel (n=8) of trained sensory evaluators experienced in the sweetness estimation procedure. All samples (in the same buffers) were served in duplicate at a temperature of 22° C.±1° C. Monatin (test) solutions, coded with 3 digit random number codes were presented individually to panelists, in random order. Sucrose reference standards, ranging from 4.0-10.0% (w/v) sucrose, increasing in steps of 0.5% (w/v) sucrose were also provided. Panelists were asked to estimate sweetness by comparing the sweetness of the test solution to the sucrose standards. This was carried out by taking 3 sips of the test solution, followed by a sip of water, followed by 3 sips of sucrose standard followed by a sip of water, etc. Panelists were encouraged to estimate the sweetness to one decimal place, e.g., 6.8, 8.5. A five minute rest period was imposed between evaluating the test solutions. Panelists were also asked to rinse well and eat a cracker to reduce any potential carry over effects.\nIf a pseudo-first order breakdown reaction is assumed, a plot of logn percentage retention versus time (logn % RTN v. t) allows estimation of the half-life (t½) and rate constant (k) of sweetness loss under any given set of conditions. In so doing, the kinetics of monatin and aspartame sweetness loss may be summarized as follows in Table 14."}}, "note": "Residues, ends and D or L forms follow the SMILES beside them.", "data": [{"molecule": "N[C@@H](C[C@@](O)(Cc1c[nH]c2ccccc12)C(=O)O)C(=O)O", "note": "(single isomer, unassigned) [R,R stereoisomer of monatin]", "values": [{"measurement": "sweetness relative to sucrose by weight", "setting": "[1]", "result": "2000-2400 times sweeter than sucrose"}]}, {"molecule": "NC(CC(O)(Cc1c[nH]c2ccccc12)C(=O)O)C(=O)O", "note": "(single isomer, unassigned) [S,S stereoisomer of monatin]", "values": [{"measurement": "sweetness relative to sucrose by weight", "setting": "[1]", "result": "50-200 times sweeter than sucrose"}]}, {"molecule": "COC(=O)[C@H](Cc1ccccc1)NC(=O)[C@@H](N)CC(=O)O", "note": "[Aspartame, reference compound] (H-Asp-Phe-OMe)", "values": [{"measurement": "Comments: flavor enhancement (lemon flavor notes)", "setting": "[2]", "result": "tea flavor. No evidence of flavor"}, {"measurement": "Comments: sweetness and flavor profile", "setting": "[2]", "result": "Good temporal characteristics although"}, {"measurement": "Rate constant (k) of sweetness loss", "setting": "[3]; pH 2.5", "result": 0.013, "unit": "day⁻¹"}, {"measurement": "Sweetness Retained", "setting": "[3]; pH 2.5", "result": 11, "unit": "%"}, {"measurement": "SEV Aspartame", "setting": "[3]; pH 2.5, day 0", "result": 7.34, "unit": "% sucrose"}, {"measurement": "Retention of Aspartame Sweetness", "setting": "[3]; pH 2.5, day 1", "result": 94.0, "unit": "%"}, {"measurement": "SEV Aspartame", "setting": "[3]; pH 2.5, day 1", "result": 6.90, "unit": "% sucrose"}, {"measurement": "Retention of Aspartame Sweetness", "setting": "[3]; pH 2.5, day 2", "result": 92.6, "unit": "%"}, {"measurement": "SEV Aspartame", "setting": "[3]; pH 2.5, day 2", "result": 6.80, "unit": "% sucrose"}, {"measurement": "Retention of Aspartame Sweetness", "setting": "[3]; pH 2.5, day 3", "result": 89.9, "unit": "%"}, {"measurement": "SEV Aspartame", "setting": "[3]; pH 2.5, day 3", "result": 6.60, "unit": "% sucrose"}, {"measurement": "Retention of Aspartame Sweetness", "setting": "[3]; pH 2.5, day 4", "result": 85.7, "unit": "%"}, {"measurement": "SEV Aspartame", "setting": "[3]; pH 2.5, day 4", "result": 6.29, "unit": "% sucrose"}, {"measurement": "Retention of Aspartame Sweetness", "setting": "[3]; pH 2.5, day 7", "result": 81.9, "unit": "%"}, {"measurement": "SEV Aspartame", "setting": "[3]; pH 2.5, day 7", "result": 6.01, "unit": "% sucrose"}, {"measurement": "Retention of Aspartame Sweetness", "setting": "[3]; pH 2.5, day 8", "result": 81.5, "unit": "%"}, {"measurement": "SEV Aspartame", "setting": "[3]; pH 2.5, day 8", "result": 5.98, "unit": "% sucrose"}, {"measurement": "Retention of Aspartame Sweetness", "setting": "[3]; pH 2.5, day 9", "result": 81.3, "unit": "%"}, {"measurement": "SEV Aspartame", "setting": "[3]; pH 2.5, day 9", "result": 5.97, "unit": "% sucrose"}, {"measurement": "Retention of Aspartame Sweetness", "setting": "[3]; pH 2.5, day 11", "result": 79.8, "unit": "%"}, {"measurement": "SEV Aspartame", "setting": "[3]; pH 2.5, day 11", "result": 5.86, "unit": "% sucrose"}, {"measurement": "Retention of Aspartame Sweetness", "setting": "[3]; pH 2.5, day 50", "result": 57.1, "unit": "%"}, {"measurement": "SEV Aspartame", "setting": "[3]; pH 2.5, day 50", "result": 4.19, "unit": "% sucrose"}, {"measurement": "Retention of Aspartame Sweetness", "setting": "[3]; pH 2.5, day 100", "result": 10.9, "unit": "%"}, {"measurement": "SEV Aspartame", "setting": "[3]; pH 2.5, day 100", "result": 0.80, "unit": "% sucrose"}, {"measurement": "Rate constant (k) of sweetness loss", "setting": "[3]; pH 3.0", "result": 0.009, "unit": "day⁻¹"}, {"measurement": "Sweetness Retained", "setting": "[3]; pH 3.0", "result": 31, "unit": "%"}, {"measurement": "SEV Aspartame", "setting": "[3]; pH 3.0, day 0", "result": 7.15, "unit": "% sucrose"}, {"measurement": "Retention of Aspartame Sweetness", "setting": "[3]; pH 3.0, day 1", "result": 96.5, "unit": "%"}, {"measurement": "SEV Aspartame", "setting": "[3]; pH 3.0, day 1", "result": 6.90, "unit": "% sucrose"}, {"measurement": "Retention of Aspartame Sweetness", "setting": "[3]; pH 3.0, day 2", "result": 96.1, "unit": "%"}, {"measurement": "SEV Aspartame", "setting": "[3]; pH 3.0, day 2", "result": 6.87, "unit": "% sucrose"}, {"measurement": "Retention of Aspartame Sweetness", "setting": "[3]; pH 3.0, day 3", "result": 92.3, "unit": "%"}, {"measurement": "SEV Aspartame", "setting": "[3]; pH 3.0, day 3", "result": 6.60, "unit": "% sucrose"}, {"measurement": "Retention of Aspartame Sweetness", "setting": "[3]; pH 3.0, day 4", "result": 89.9, "unit": "%"}, {"measurement": "SEV Aspartame", "setting": "[3]; pH 3.0, day 4", "result": 6.43, "unit": "% sucrose"}, {"measurement": "Retention of Aspartame Sweetness", "setting": "[3]; pH 3.0, day 7", "result": 86.3, "unit": "%"}, {"measurement": "SEV Aspartame", "setting": "[3]; pH 3.0, day 7", "result": 6.17, "unit": "% sucrose"}, {"measurement": "Retention of Aspartame Sweetness", "setting": "[3]; pH 3.0, day 8", "result": 82.9, "unit": "%"}, {"measurement": "SEV Aspartame", "setting": "[3]; pH 3.0, day 8", "result": 5.93, "unit": "% sucrose"}, {"measurement": "Retention of Aspartame Sweetness", "setting": "[3]; pH 3.0, day 9", "result": 83.1, "unit": "%"}, {"measurement": "SEV Aspartame", "setting": "[3]; pH 3.0, day 9", "result": 5.94, "unit": "% sucrose"}, {"measurement": "Retention of Aspartame Sweetness", "setting": "[3]; pH 3.0, day 11", "result": 81.5, "unit": "%"}, {"measurement": "SEV Aspartame", "setting": "[3]; pH 3.0, day 11", "result": 5.83, "unit": "% sucrose"}, {"measurement": "Retention of Aspartame Sweetness", "setting": "[3]; pH 3.0, day 50", "result": 65.9, "unit": "%"}, {"measurement": "SEV Aspartame", "setting": "[3]; pH 3.0, day 50", "result": 4.71, "unit": "% sucrose"}, {"measurement": "Retention of Aspartame Sweetness", "setting": "[3]; pH 3.0, day 100", "result": 30.8, "unit": "%"}, {"measurement": "SEV Aspartame", "setting": "[3]; pH 3.0, day 100", "result": 2.20, "unit": "% sucrose"}, {"measurement": "Rate constant (k) of sweetness loss", "setting": "[3]; pH 4.0", "result": 0.005, "unit": "day⁻¹"}, {"measurement": "Sweetness Retained", "setting": "[3]; pH 4.0", "result": 58, "unit": "%"}, {"measurement": "SEV Aspartame", "setting": "[3]; pH 4.0, day 0", "result": 7.10, "unit": "% sucrose"}, {"measurement": "Retention of Aspartame Sweetness", "setting": "[3]; pH 4.0, day 3", "result": 95.1, "unit": "%"}, {"measurement": "SEV Aspartame", "setting": "[3]; pH 4.0, day 3", "result": 6.75, "unit": "% sucrose"}, {"measurement": "Retention of Aspartame Sweetness", "setting": "[3]; pH 4.0, day 8", "result": 87.8, "unit": "%"}, {"measurement": "SEV Aspartame", "setting": "[3]; pH 4.0, day 8", "result": 6.23, "unit": "% sucrose"}, {"measurement": "Retention of Aspartame Sweetness", "setting": "[3]; pH 4.0, day 11", "result": 84.8, "unit": "%"}, {"measurement": "SEV Aspartame", "setting": "[3]; pH 4.0, day 11", "result": 6.02, "unit": "% sucrose"}, {"measurement": "Retention of Aspartame Sweetness", "setting": "[3]; pH 4.0, day 17", "result": 81.0, "unit": "%"}, {"measurement": "SEV Aspartame", "setting": "[3]; pH 4.0, day 17", "result": 5.75, "unit": "% sucrose"}, {"measurement": "Retention of Aspartame Sweetness", "setting": "[3]; pH 4.0, day 24", "result": 82.4, "unit": "%"}, {"measurement": "SEV Aspartame", "setting": "[3]; pH 4.0, day 24", "result": 5.85, "unit": "% sucrose"}, {"measurement": "Retention of Aspartame Sweetness", "setting": "[3]; pH 4.0, day 50", "result": 74.5, "unit": "%"}, {"measurement": "SEV Aspartame", "setting": "[3]; pH 4.0, day 50", "result": 5.29, "unit": "% sucrose"}, {"measurement": "Retention of Aspartame Sweetness", "setting": "[3]; pH 4.0, day 100", "result": 57.7, "unit": "%"}, {"measurement": "SEV Aspartame", "setting": "[3]; pH 4.0, day 100", "result": 4.10, "unit": "% sucrose"}]}, {"molecule": "OC[C@H]1O[C@H](O[C@]2(CCl)O[C@H](CCl)[C@@H](O)[C@@H]2O)[C@H](O)[C@@H](O)[C@H]1Cl", "note": "[Sucralose]", "values": [{"measurement": "Comments: sweetness and flavor profile", "setting": "[2]", "result": "Delay in sweetness onset means first"}]}]}
